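The compound was tested at five concentrations on cells cultured in 96-well plates, with a 48-hour exposure period. Definition used: TGI = concentration required for complete inhibition of growth.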
Assays:
Assay in all cases: inhibition of tumour cell growth, NCI panel, 48 h
MDA-MB-231 breast = tested on: MDA-MB-231 breast
HCT-116 colon = tested on: HCT-116 colon
U251 CNS = tested on: U251 CNS
EKVX NSCLC = tested on: EKVX NSCLC
SF-268 CNS = tested on: SF-268 CNS
MCF7 breast = tested on: MCF7 breast
SN12C renal = tested on: SN12C renal
KM12 colon = tested on: KM12 colon
NCI-H522 lung = tested on: NCI-H522 lung
UACC-257 melanoma = tested on: UACC-257 melanoma
786-0 renal = tested on: 786-0 renal
A549 NSCLC = tested on: A549 NSCLC
T-47D breast = tested on: T-47D breast
MALME-3M melanoma = tested on: MALME-3M melanoma
ACHN renal = tested on: ACHN renal
NCI-H226 lung = tested on: NCI-H226 lung
MOLT-4 leukemia = tested on: MOLT-4 leukemia
HL-60(TB) leukemia = tested on: HL-60(TB) leukemia
SK-MEL-28 melanoma = tested on: SK-MEL-28 melanoma
SF-539 CNS = tested on: SF-539 CNS
CAKI-1 renal = tested on: CAKI-1 renal
A498 renal = tested on: A498 renal
MDA-MB-435 = tested on: MDA-MB-435
SW-620 colon = tested on: SW-620 colon
TK-10 renal = tested on: TK-10 renal
SR leukemia = tested on: SR leukemia
K-562 leukemia = tested on: K-562 leukemia
HT29 colon = tested on: HT29 colon
MDA-N = tested on: MDA-N
IGROV1 ovarian = tested on: IGROV1 ovarian
SNB-19 CNS = tested on: SNB-19 CNS
CCRF-CEM leukemia = tested on: CCRF-CEM leukemia
OVCAR-5 ovarian = tested on: OVCAR-5 ovarian
SNB-75 CNS = tested on: SNB-75 CNS
OVCAR-3 ovarian = tested on: OVCAR-3 ovarian
M14 melanoma = tested on: M14 melanoma
OVCAR-8 ovarian = tested on: OVCAR-8 ovarian
DU-145 prostate = tested on: DU-145 prostate
UO-31 renal = tested on: UO-31 renal
HCC-2998 colon = tested on: HCC-2998 colon
RXF 393 renal = tested on: RXF 393 renal
OVCAR-4 ovarian = tested on: OVCAR-4 ovarian
PC-3 prostate = tested on: PC-3 prostate
UACC-62 melanoma = tested on: UACC-62 melanoma
HS 578T breast = tested on: HS 578T breast
HOP-92 NSCLC = tested on: HOP-92 NSCLC
HOP-62 NSCLC = tested on: HOP-62 NSCLC
NCI-H23 lung = tested on: NCI-H23 lung
SK-OV-3 ovarian = tested on: SK-OV-3 ovarian
BT-549 breast = tested on: BT-549 breast
SK-MEL-5 melanoma = tested on: SK-MEL-5 melanoma
SF-295 CNS = tested on: SF-295 CNS
COLO 205 colon = tested on: COLO 205 colon
NCI-H460 lung = tested on: NCI-H460 lung
LOX IMVI melanoma = tested on: LOX IMVI melanoma
RPMI-8226 leukemia = tested on: RPMI-8226 leukemia

Structure (SMILES): O=C1CCN(CCC(F)(F)C(F)(F)C(F)(F)C(F)(F)C(F)(F)C(F)(F)F)C(=S)N1CCC(F)(F)C(F)(F)C(F)(F)C(F)(F)C(F)(F)C(F)(F)F
- TGI (MDA-MB-231 breast): > 100 µM
- TGI (HCT-116 colon): > 100 µM
- TGI (U251 CNS): > 100 µM
- TGI (EKVX NSCLC): > 100 µM
- TGI (SF-268 CNS): > 100 µM
- TGI (MCF7 breast): > 100 µM
- TGI (SN12C renal): > 100 µM
- TGI (KM12 colon): > 100 µM
- TGI (NCI-H522 lung): > 100 µM
- TGI (UACC-257 melanoma): > 100 µM
- TGI (786-0 renal): > 100 µM
- TGI (A549 NSCLC): > 100 µM
- TGI (T-47D breast): > 100 µM
- TGI (MALME-3M melanoma): > 100 µM
- TGI (ACHN renal): > 100 µM
- TGI (NCI-H226 lung): > 100 µM
- TGI (MOLT-4 leukemia): > 100 µM
- TGI (HL-60(TB) leukemia): > 100 µM
- TGI (SK-MEL-28 melanoma): > 100 µM
- TGI (SF-539 CNS): > 100 µM
- TGI (CAKI-1 renal): > 100 µM
- TGI (A498 renal): > 100 µM
- TGI (MDA-MB-435): > 100 µM
- TGI (SW-620 colon): > 100 µM
- TGI (TK-10 renal): > 100 µM
- TGI (SR leukemia): > 100 µM
- TGI (K-562 leukemia): > 100 µM
- TGI (HT29 colon): > 100 µM
- TGI (MDA-N): > 100 µM
- TGI (IGROV1 ovarian): > 100 µM
- TGI (SNB-19 CNS): > 100 µM
- TGI (CCRF-CEM leukemia): > 100 µM
- TGI (OVCAR-5 ovarian): > 100 µM
- TGI (SNB-75 CNS): > 100 µM
- TGI (OVCAR-3 ovarian): > 100 µM
- TGI (M14 melanoma): > 100 µM
- TGI (OVCAR-8 ovarian): > 100 µM
- TGI (DU-145 prostate): > 100 µM
- TGI (UO-31 renal): > 100 µM
- TGI (HCC-2998 colon): > 100 µM
- TGI (RXF 393 renal): > 100 µM
- TGI (OVCAR-4 ovarian): > 100 µM
- TGI (PC-3 prostate): > 100 µM
- TGI (UACC-62 melanoma): > 100 µM
- TGI (HS 578T breast): > 100 µM
- TGI (HOP-92 NSCLC): > 100 µM
- TGI (HOP-62 NSCLC): > 100 µM
- TGI (NCI-H23 lung): > 100 µM
- TGI (SK-OV-3 ovarian): > 100 µM
- TGI (BT-549 breast): > 100 µM
- TGI (SK-MEL-5 melanoma): > 100 µM
- TGI (SF-295 CNS): > 100 µM
- TGI (COLO 205 colon): > 100 µM
- TGI (NCI-H460 lung): > 100 µM

Structure (SMILES): COc1c(Cl)nc2ccccc2c1N=[N+]=[N-]
- TGI (MDA-MB-231 breast): > 100 µM
- TGI (HCT-116 colon): > 100 µM
- TGI (U251 CNS): > 100 µM
- TGI (SF-268 CNS): > 100 µM
- TGI (MCF7 breast): > 100 µM
- TGI (SN12C renal): > 100 µM
- TGI (KM12 colon): > 100 µM
- TGI (UACC-257 melanoma): > 100 µM
- TGI (786-0 renal): > 100 µM
- TGI (A549 NSCLC): > 100 µM
- TGI (T-47D breast): > 100 µM
- TGI (LOX IMVI melanoma): > 100 µM
- TGI (MALME-3M melanoma): > 100 µM
- TGI (ACHN renal): > 100 µM
- TGI (MOLT-4 leukemia): > 100 µM
- TGI (HL-60(TB) leukemia): > 100 µM
- TGI (SK-MEL-28 melanoma): > 100 µM
- TGI (SF-539 CNS): > 100 µM
- TGI (CAKI-1 renal): > 100 µM
- TGI (A498 renal): 60.9 µM
- TGI (MDA-MB-435): > 100 µM
- TGI (SW-620 colon): > 100 µM
- TGI (TK-10 renal): > 100 µM
- TGI (SR leukemia): > 100 µM
- TGI (K-562 leukemia): > 100 µM
- TGI (HT29 colon): > 100 µM
- TGI (MDA-N): > 100 µM
- TGI (RPMI-8226 leukemia): > 100 µM
- TGI (IGROV1 ovarian): > 100 µM
- TGI (SNB-19 CNS): > 100 µM
- TGI (CCRF-CEM leukemia): > 100 µM
- TGI (OVCAR-5 ovarian): > 100 µM
- TGI (SNB-75 CNS): > 100 µM
- TGI (OVCAR-3 ovarian): > 100 µM
- TGI (M14 melanoma): > 100 µM
- TGI (DU-145 prostate): > 100 µM
- TGI (UO-31 renal): > 100 µM
- TGI (HCC-2998 colon): > 100 µM
- TGI (RXF 393 renal): > 100 µM
- TGI (OVCAR-4 ovarian): > 100 µM
- TGI (PC-3 prostate): > 100 µM
- TGI (UACC-62 melanoma): > 100 µM
- TGI (HS 578T breast): > 100 µM
- TGI (HOP-92 NSCLC): > 100 µM
- TGI (HOP-62 NSCLC): > 100 µM
- TGI (NCI-H23 lung): > 100 µM
- TGI (SK-OV-3 ovarian): > 100 µM
- TGI (BT-549 breast): 94.8 µM
- TGI (SK-MEL-5 melanoma): > 100 µM
- TGI (SF-295 CNS): > 100 µM
- TGI (COLO 205 colon): > 100 µM
- TGI (NCI-H460 lung): > 100 µM

— PubChem BioAssay (NCI)
